This note sets out measurements from patent US20220098162A1, “APHTHYLAMINE COMPOUND AND BIOLOGICALLY ACCEPTABLE SALT THEREOF, PREPARATION METHOD THEREFOR, AND APPLICATION THEREOF” (Henan Radiomedical Science and Technology Co., Ltd, priority 2019, published 2022).

Where a name gives a salt, the structure may show the parent alone.

Common to all, as to assay type: cell-based
In assay [1] the test system is HCT-116 cells. Nature of the assay: MTT experiment, HCT-116 cells. The settings on record: Homo sapiens; HCT-116, MTT, 48 hours, hydrochloride salt. The procedure:
(§1) Experiment on Inducing Apoptosis of Breast Cancer, Colon Cancer and Lung Cancer Cancer Cells
(§2) Method: collecting logarithmic growth phase MDA-MB-231, MCF-7, HCT-116, PC9-AR, PC9-GR, PC9 cells, counting, adjusting the cell suspension concentration to 50000 cells/mL, adding 100 ul cell suspension to each well, that is, 5000 cells per well, and adding the above cancer cells to the hydrochloride of the naphthylamine compounds of 1a and 3a of the invention, to enable the final concentration of the hydrochloride of the naphthylamine compound in the system to be several gradients of 0.1, 0.3, 1, 3, 10, 30, 100, 300 (μmol/L), and continuing culturing for 48 hours; after treating with drug, adding 50 μL of Thiazole Blue reagent (1 mg/mL) to each well, incubating at 37° C. for 4 hours, shaking the plate to discard the liquid in the well, draining the water, absorbing the remaining liquid with filter paper, and then adding 100 μL of dimethyl sulfoxide; reacting on a horizontal shaker for 7-8 minutes, until the blue-violet crystals are completely dissolved; reading the value with a microplate reader, measuring the OD value at the absorption wavelength of 570 nm, recording the result. […]

For assay [2], the system named is PC9GR cells. Nature of the assay: MTT experiment, PC9-GR cells. The settings on record: 48 hours, hydrochloride salt. How it is done:
as §1, §2

The subject of assay [3] is MDA-MB-231 cells. In words: MTT experiment, MDA-MB-231 cells. The settings on record: Homo sapiens; MDA-MB-231, MTT, 48 hours, hydrochloride salt. The procedure: as §1, §2
Assay [4] has as its system PC9 cells. Nature of the assay: MTT experiment, PC9 cells. The settings on record: Homo sapiens, PC-9, 48 hours, hydrochloride salt. The procedure:
as §1, §2

Assay [5] has as its system PC9AR cells. In words: MTT experiment, PC9-AR cells. Particulars: 48 hours, hydrochloride salt. How it is done:
as §1, §2

The subject of assay [6] is MCF-7 cells. In words: MTT experiment, MCF-7 cells. Particulars: Homo sapiens, MCF7; MCF-7, MTT, 48 hours, hydrochloride salt. The procedure:
as §1, §2

The subject of assay [7] is p-STAT3 in HCC827 cells. Nature of the assay: Westernblot experiment, STAT3 and p-STAT3 in IL-6 stimulated HCC827 cells. The settings on record: HCC827, 10, 30, 100 and 300 μmol/L, IL-6 30 ng/mL. The procedure: (1) Taking HCC827 cells in logarithmic growth phase, digesting them with trypsin, preparing a single cell suspension with a density of 300,000 cells/mL with RPMI-1640 medium containing 10% fetal bovine serum, and adding 2 mL of cell suspension to each well to inoculate a 6-well cell culture plate.
(2) Incubating in a 37° C., 5% CO2 incubator. After the cells adhere to the wall, adding the experimental group with different concentrations of the drug SMY002 (3a), and the concentration gradients are: 10, 30, 100 and 300 μmol/L; adding 30 μL of interleukin-6 (IL-6) one hour later at a concentration of […] to stimulate the cells, and the final concentration of interleukin-6 (IL-6) is 30 ng/mL.
(3) After continuing to culture for 0.5 h, lysing the cells with RIPA lysis buffer to collect proteins. […]
(4) Transferring the cell supernatant to a clean centrifuge tube. Dividing the cell supernatant into two parts: taking 5 μL and add it to a 1.5 mL centrifuge tube for BCA to measure the protein content, then adding 45 μL of 1× phosphate buffered saline (PBS) and mixing well for later use; quantitatively taking 140 μL of the remaining cell supernatant, adding 35 μL of 5×SDS loading buffer, boiling in boiling water for 8 minutes after mixing, and storing in a refrigerator at −20° C. after centrifugation. […]

`Nc1ccc(OC(=O)c2ccc(OCCN3CCCCC3)cc2)c2ccccc12` [SMY001 (1a), 4-(2-(piperidin-1-yl)ethoxy) benzoic acid-4-amino-1-naphthyl ester dihydrochloride]: the IC50 in assay [1] stood at 25400 nM; in assay [2], 30400 nM; in assay [3], 14900 nM; in assay [4] it was 26600 nM; in assay [5], 38500 nM.

Regarding `Nc1ccc(OCc2ccc(OCCN3CCCCC3)cc2)c2ccccc12` [SMY002 (3a), 4-(4-(2-(piperidin-1-yl)ethoxy)benzyloxy)-1-naphthylamine dihydrochloride], the IC50 came to 2040 nM in assay [6]; 1980 nM in assay [1]; 472 nM in assay [2]; 1810 nM in assay [3]; 473 nM in assay [4]; 655 nM in assay [5]. Besides, in assay [7], the “amount of STAT3 protein expressed (Westernblot)” value is listed as “remains unchanged”. In addition, the “expression of p-STAT3 (Westernblot)” value in assay [7] was “significantly inhibits”.

The IC50 is the concentration that gives 50% inhibition.
